Test results from patent US9481688B2, “(Thieno[2,3-b][1,5]benzoxazepin-4-yl)piperazin-1-yl compounds as dual activity H1 inverse agonists/5-HT2A antagonists” (Eli Lilly and Company, priority 2011, dated 2016).

What was measured:
[1] = biological target: recombinant 5-HT2A receptor (human) (Homo sapiens (Human), UniProt P28223); test: 5-HT2A competition binding assay ([3H]-Ketanserin, SPA)
Experimental: [^3H]-Ketanserin binding experiments are carried out in SPA 96-well format. Membranes used in this assay are prepared from AV-12 cells stably expressing recombinant 5-HT2A receptor (human). The incubation is initiated by the addition of a mixture of WGA YSi SPA beads (1 mg/well, Perkin Elmer (MA, USA), RPNQ0011) and 2 μg membranes to assay buffer (67 mM Tris, 0.5 mM EDTA; pH 7.6) containing 3.1 nM [^3H]-Ketanserin and varying concentrations of the test compound (10 point concentration response curves). Non-specific binding is determined in the presence of 20 μM 1-(1-Naphthyl) piperazine. Samples are incubated for 4 hr. at room temperature (22° C.) and then read in a Microbeta Trilux.

[2] = Plasma clearance in rat (intravenous); type: in vivo; details: male, Sprague Dawley, rat, plasma, iv, 1 mg/kg, read-out: Clearance
Experimental: Male Sprague Dawley rats (body weight range 250-320 g) with indwelling femoral arterial cannulae are obtained from Charles River, Wilmington, Mass. 01887, USA. Test compound is administered intravenously in solution (1 mL/kg) in 20% Captisol® in 22.5 mM phosphate buffer, pH 2, at a final drug concentration of 1.0 mg/mL (free base equivalents). Blood samples are obtained using the indwelling cannula over 24 hr. Samples of plasma are obtained by centrifugation and stored frozen (−20° C.), or on dry ice, prior to analysis.
Frozen plasma samples are thawed to room temperature for bioanalysis of concentrations of test compound. A related internal standard compound in acetonitrile/methanol (1:1, v/v) is added to all samples of plasma (1:1, v/v). The samples are centrifuged to remove precipitated protein prior to analysis. The supernatants are analysed by injection and rapid gradient elution on a Javelin Betasil C18 column (20×2.1 mm cartridge, Mobile phase A: Water/1 M NH4HCO3, 2000:10 v/v, Mobile Phase B: MeOH/1 M NH4HCO3, 2000:10 v/v). The eluted analytes are detected by LC-MS-MS analysis using a Sciex API 4000 triple quadrupole mass spectrometer. Concentrations of compound are determined from standards prepared and analysed under identical conditions. Clearance is calculated using non-compartmental analysis in Watson 7.4, Thermo Fisher Scientific, Inc.

[3] = biological target: Dopamine D3 (Homo sapiens (Human), UniProt P35462); test: Dopamine D3 binding
Dopamine D3, sequence (P35462 whole entry): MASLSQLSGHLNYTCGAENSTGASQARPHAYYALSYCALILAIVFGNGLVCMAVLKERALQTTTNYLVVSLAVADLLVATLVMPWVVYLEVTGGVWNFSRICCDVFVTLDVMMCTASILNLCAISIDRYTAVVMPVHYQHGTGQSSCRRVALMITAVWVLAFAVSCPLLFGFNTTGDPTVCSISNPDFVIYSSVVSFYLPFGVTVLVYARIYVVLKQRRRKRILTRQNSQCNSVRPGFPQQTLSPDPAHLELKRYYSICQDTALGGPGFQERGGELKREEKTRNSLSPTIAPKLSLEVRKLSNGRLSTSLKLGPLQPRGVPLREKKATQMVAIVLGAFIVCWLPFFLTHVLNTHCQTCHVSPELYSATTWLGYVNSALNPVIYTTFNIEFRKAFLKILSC
Text: (§1) Further, the compounds of the invention may be tested in binding assays and functional activity assays by well known methods for other physiologically important receptors such as, but not limited to, the hERG channel, other serotonin receptors (specifically 5-HT1B, 5-HT1D, receptors, lack of agonist activity at 5-HT2B receptors, 5-HT2C, 5-HT5, 5-HT6, and 5-HT7 receptors), dopaminergic receptors (specifically D1, D2, and D3), GABAA receptors, adrenergic receptors and monoamine transporters.

[4] = biological target: human recombinant H1 receptor (Homo sapiens (Human), UniProt P35367); test: H1 competition binding assay ([3H]-Pyrilamine, SPA)
human recombinant H1 receptor, sequence (P35367 whole entry): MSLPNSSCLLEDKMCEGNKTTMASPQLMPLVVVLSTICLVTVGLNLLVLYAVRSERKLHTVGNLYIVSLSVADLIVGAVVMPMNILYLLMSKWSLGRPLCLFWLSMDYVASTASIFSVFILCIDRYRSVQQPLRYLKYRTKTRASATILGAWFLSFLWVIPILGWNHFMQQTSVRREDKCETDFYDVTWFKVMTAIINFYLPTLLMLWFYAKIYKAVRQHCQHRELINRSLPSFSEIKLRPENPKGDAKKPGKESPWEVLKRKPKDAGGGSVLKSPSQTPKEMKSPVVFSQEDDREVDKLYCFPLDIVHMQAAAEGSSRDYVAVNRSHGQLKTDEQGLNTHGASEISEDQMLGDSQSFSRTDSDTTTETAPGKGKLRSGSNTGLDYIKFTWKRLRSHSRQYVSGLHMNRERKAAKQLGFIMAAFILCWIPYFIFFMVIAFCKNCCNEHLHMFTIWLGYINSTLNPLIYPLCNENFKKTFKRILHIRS
Experimental: [^3H]-Pyrilamine binding experiments are carried out in SPA (scintillation proximity assay) 96-well format. Membranes used in this assay are prepared from HEK-293 cells stably expressing recombinant H1 receptor (human). The incubation is initiated by the addition of a mixture of WGA PVT SPA beads (1 mg/well, Perkin Elmer (MA, USA) RPNQ0001) and 3 μg membranes to assay buffer (67 mM Tris; pH 7.6) containing 3.5 nM [^3H]-Pyrilamine and varying concentrations of the test compound (10 point concentration response curves). Non-specific binding is determined in the presence of 10 μM Triprolidine. Samples are incubated for 4 hr. at room temperature (22° C.) and then read in a Microbeta Trilux.
Curves are evaluated using a 4-parameter logistic nonlinear equation to obtain the concentration of competitor causing 50% inhibition of radioligand binding (IC50). Equilibrium dissociation constants (Ki) are calculated according to the equation Ki=IC50/(1+L/Kd), where L equals the concentration of radioligand used in the experiment and Kd equals the equilibrium dissociation constant of the radioligand for the receptor, determined from standard saturation analysis or homologous competition experiments. Reported values for Ki, where n values are indicated, are shown as geometric mean±the standard error of the mean (SEM), with the number of replicate determinations indicated by n. […]

[5] = biological target: Dopamine D2 (Homo sapiens (Human), UniProt P14416); test: Dopamine D2 binding
Dopamine D2, sequence (P14416 whole entry): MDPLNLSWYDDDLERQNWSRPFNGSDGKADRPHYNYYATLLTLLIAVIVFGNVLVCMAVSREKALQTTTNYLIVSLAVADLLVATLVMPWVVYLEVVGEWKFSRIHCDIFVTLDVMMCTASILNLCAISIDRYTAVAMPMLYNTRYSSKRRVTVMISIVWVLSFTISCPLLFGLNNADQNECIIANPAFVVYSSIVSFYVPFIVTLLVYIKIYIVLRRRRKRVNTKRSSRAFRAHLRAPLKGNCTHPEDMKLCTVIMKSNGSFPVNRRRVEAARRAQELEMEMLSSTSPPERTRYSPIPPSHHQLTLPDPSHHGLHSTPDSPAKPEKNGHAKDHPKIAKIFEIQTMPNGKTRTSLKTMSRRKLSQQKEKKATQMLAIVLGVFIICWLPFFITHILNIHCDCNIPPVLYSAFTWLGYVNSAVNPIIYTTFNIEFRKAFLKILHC
Text: as §1

[6] = biological target: recombinant 5-HT2C receptor (human) (Homo sapiens (Human), UniProt P28335); test: 5-HT2C competition binding assay ([125I]-DOI, SPA)
recombinant 5-HT2C receptor (human), sequence (P28335 whole entry, looked up): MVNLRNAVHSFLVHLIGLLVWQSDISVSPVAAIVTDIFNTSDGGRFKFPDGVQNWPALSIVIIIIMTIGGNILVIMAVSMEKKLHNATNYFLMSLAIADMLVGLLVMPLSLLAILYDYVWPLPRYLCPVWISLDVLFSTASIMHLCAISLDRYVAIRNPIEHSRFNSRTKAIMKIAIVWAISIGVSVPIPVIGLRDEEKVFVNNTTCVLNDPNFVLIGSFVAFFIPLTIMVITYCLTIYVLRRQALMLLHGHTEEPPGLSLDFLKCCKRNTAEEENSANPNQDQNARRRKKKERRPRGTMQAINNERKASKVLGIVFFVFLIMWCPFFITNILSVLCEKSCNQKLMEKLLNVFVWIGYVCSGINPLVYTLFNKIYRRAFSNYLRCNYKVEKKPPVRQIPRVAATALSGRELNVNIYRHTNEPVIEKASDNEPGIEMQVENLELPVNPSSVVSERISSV
Experimental: [^125I]-(±)DOI binding experiments are carried out in SPA 96-well format. Membranes used in this assay are prepared from AV-12 cells stably expressing recombinant 5-HT2C receptor (human). The incubation is initiated by the addition of a mixture of WGA PVT SPA beads (0.5 mg/well, Perkin Elmer (MA, USA), RPNQ0001) and 2.5 μg membranes to assay buffer (50 mM Tris-HCl, 10 mM MgCl2, 0.5 mM EDTA, 10 μM pargyline, 0.1% ascorbic acid, pH7.4) containing 0.2 nM [[^125I]-(±)DOI and varying concentrations of the test compound (10 point concentration response curves). Non-specific binding is determined in the presence of 20 μM 1-(1-Naphthyl) piperazine. Samples are incubated for 4 hr. at room temperature (22° C.) and then read in a Microbeta Trilux.
Curves are evaluated using a 4-parameter logistic nonlinear equation to obtain the concentration of competitor causing 50% inhibition of radioligand binding (IC50). Equilibrium dissociation constants (Ki) are calculated according to the equation Ki=IC50/(1+L/Kd), where L equals the concentration of radioligand used in the experiment and Kd equals the equilibrium dissociation constant of the radioligand for the receptor, determined from standard saturation analysis or homologous competition experiments. […]

Cc1ccc2c(c1)Oc1sc(Cl)cc1C(N1CCN(CC(C)(C)C(=O)O)CC1)=N2 [Example 1, 3-[4-(2-Chloro-8-methyl-thieno[2,3-b][1,5]benzoxazepin-4-yl)piperazin-1-yl]-2,2-dimethyl-propanoic acid]
Ki [1]: 3.37 nM
clearance [2]: 14.1 mL/min/kg
Ki [3]: > 5.51 µM
Ki [4]: 20.6 nM
Ki [5]: 2780 nM
Ki [6]: 137 nM
